Where two headings read alike, the source gives them in different places.
Tests used:
[1] = system: trypomastigotes/amastigotes of T. cruzi (CLB strain); experiment: Trypomastigote/amastigote susceptibility assay in infected L-929 fibroblasts; type: cell-based, Trypanosoma cruzi; settings: for IC50: CLB strain, 96 h treatment, read-out: IC50 (µM) trypomastigote/amastigote growth inhibition
Description: This assay was performed in 96-well microplates. Briefly, 4 × 10^3 L-929 fibroblasts were seeded in 80 µl of MEM containing 10% FBS and antibiotics. The plate was placed overnight at 37 °C in a 5% CO2 humidified incubator to allow cell adherence. Afterward, the cells were infected with 20 µL of trypomastigotes (40,000 trypomastigotes/well (4000 mammalian cells)) diluted in the same medium. The cell:parasite ratio was 1:10. Plates were incubated for 2 h at 33 °C and 5% CO2. The medium was then discarded to dispose of nonpenetrated parasites and replaced with 200 µL of MEM without phenol red supplemented with FBS and antibiotics. After 48 h of incubation, the content of the wells was replaced with a fresh medium containing the dilutions of the compounds. The plates were returned to the incubator for an additional 96 h under the same conditions. Wells containing drug blanks, medium, fibroblasts, and untreated infected cells were included in all the plates as controls. An internal control of the reference drug (benznidazole) was also included. Next, 50 µl of substrate CPRG (diluted in 3% Triton X-100 solution) were added at a final concentration of 400 µM. After 18–20 h of incubation at 37 °C, absorbance readings were taken at 595 nm using a scanning multiwell spectrophotometer. All the assays were performed in triplicate and the experiments were run three times in different weeks. The results are expressed as the percentage of trypomastigote/amastigote growth inhibition (% T/A GI value) as follows:(2) %Trypomastigote/Amastigote growth inhibition=100−(AE−AEB)/(AC−ACB) ×100 where AE is the absorbance of the experimental group, AEB the absorbance of the compound blank, AC the absorbance of the control group, and ACB the absorbance of the culture medium blank. The IC50 values (the drug concentration that eliminates 50% of the parasites) were determined for each compound using the GraphPad Prism software.

[2] = Cytotoxicity assay (resazurin) in Hep G2 cells; type: cell-based, human; settings: human, n = 9; for cytotoxicity at 24 h, 1 µM: Hep G2, 1 µM, read-out: Cytotoxicity (% cell growth inhibition) at 1 µM ± SD; for cytotoxicity at 24 h, 10 µM: Hep G2, 10 µM, read-out: Cytotoxicity (% cell growth inhibition) at 10 µM ± SD; for cytotoxicity at 24 h, 100 µM: Hep G2, 100 µM, read-out: Cytotoxicity (% cell growth inhibition) at 100 µM ± SD
Text: Mouse L-929 fibroblasts (NCTC clone 929, ECACC 88102702) were used for both drug toxicity and infection assays. Cell line was obtained from Dr. Concepció Soler, Dept. Pathology & Experimental therapeutics, Faculty of Medicine and Health Sciences, University of Barcelona, Spain. Human hepatocarcinoma Hep G2 cells (American Type Culture Collection (ATCC HB-8065)) were employed only in the drug toxicity assays and were obtained from Dr. Neus Agell, Cell Biology Research Group, Faculty of Medicine and Health Sciences, University of Barcelona, Spain.
Cells were seeded by trypsinization in 96-well microplates (L-929: 4 × 10^3 cells/well; Hep G2: 1.5 × 10^4 cells/well) and incubated for 24 h at 37 °C to allow cell attachment. On the following day, the medium was discarded and replaced with a fresh medium containing the different concentrations of the drugs. […] Medium, growth, and drug blanks were used in each test as controls. Plates were incubated again for another 24 h. After treatment, 20 µL of resazurin diluted in 1X phosphate-buffered saline (PBS; Sigma Aldrich) was added at a final concentration of 70 µM. The plates were incubated for another 24 h, after which fluorescence was measured in a microplate reader (FLUOstar OPTIMA, BMG LABTECH GmbH, Ortenberg, Germany) at an excitation wavelength of 530 nm and an emission wavelength of 590 nm. Each concentration was tested in triplicate and the experiments were repeated three times independently. Results indicated the percentage of toxicity (% T value). (3) % Toxicity=100−(AE−AEB)/(AC−ACB)×100 where AE is the absorbance of the experimental group, AEB the absorbance of the drug blank, AC the absorbance of the untreated cells, and ACB the absorbance of the culture medium blank. […]

[3] = system: epimastigotes of T. cruzi (CL strain, clone B5); design: method as in PMID 31210760; settings: read-out: IC50 against epimastigotes of T. cruzi (earlier study); cited from earlier work
[4] = system: epimastigotes of T. cruzi; experiment: Epimastigote susceptibility assay (combined therapy with benznidazole); type: cell-based, Trypanosoma cruzi; settings: combination of benznidazole with compound at 0.25x IC50
Description: To assess the anti-epimastigote effect of the compounds in combination with benznidazole, fixed concentrations of each compound were added to a 96-well microplate previously filled with serial dilutions of benznidazole (0.06–128 µM). These fixed concentrations were calculated based on the IC50 values previously obtained for each drug and corresponded to 4x IC50, 2x IC50, IC50, 0.75x IC50, 0.5x IC50, 0.25x IC50. Each well was inoculated with 100 µL of the epimastigotes (2.5 × 10^5/mL) obtained from the exponential growth phase and the plates were incubated for 72 h at 28 °C. Drug blanks, medium, and growth wells were included in each assay as controls. Afterward, 50 µL of CPRG diluted in 0.9% Triton X-100 solution were added at a final concentration of 200 µM and the plates were returned to the incubator for another 3 h at 37 °C. After incubation, absorbance was read at 595 nm and the data were analyzed. All experiments were repeated at least two times independently and each combination was tested in duplicate.
The results are expressed as the IC50 values obtained with each drug combination. To evaluate the interaction of benznidazole with these compounds, fractional inhibitory concentration (FIC) values were calculated as follows:
FIC of compound A (FIC A) = IC50 of A in combination/IC50 of A alone; while FIC of compound B (FIC B) = IC50 of B in combination/IC50 of B alone.
Finally, the FIC index (FICi) was calculated as the sum of FICs using the following formula: FICi=FIC A+FIC B
FICi values were interpreted according to the criteria established by Simoes-Silva et al.: FICi ≤ 0.5 indicates synergism; FICi > 0.5 and ≤ 4 indicates an additive interaction (no interaction); and FICi > 4 indicates antagonism.

[5] = POPC vesicles, external nitrate; ref 1 (Hernando et al., Sci. Rep., 2018); read-out: EC50 (µM) NO3–/Cl–; cited from earlier work
Entamoeba = system: Entamoeba; design: method as in PMID 32196500; settings: read-out: IC50 against Entamoeba; cited from earlier work
Giardia = system: Giardia; design: method as in PMID 32196500; settings: read-out: IC50 against Giardia; cited from earlier work
Trypanosoma brucei = system: Trypanosoma brucei; design: method as in PMID 32196500; settings: read-out: IC50 against Trypanosoma brucei; cited from earlier work
[6] = IC50 for L-929 fibroblasts / IC50 for T. cruzi trypomastigotes/amastigotes
[7] = Trypanosoma cruzi, L929, highest concentration assayed (16 µM), n = 9, read-out: % Trypomastigote/Amastigote Growth Inhibition (%T/A GI ± SD)
[8] = Hep G2 hepatocarcinoma cells (ATCC HB-8065)

SMILES | Selectivity index (SI), Trypomastigotes [1, 6] | IC50 ([1]; Trypanosoma cruzi, L929) | inhibition at 16 µM [1, 7] | cytotoxicity at 24 h, 1 µM [2, 8] | cytotoxicity at 24 h, 10 µM [2, 8] | cytotoxicity at 24 h, 100 µM [2, 8] | IC50 [3] | FICi [4] | EC50 [5] | % Trypomastigote/Amastigote Growth Inhibition (%T/A GI ± SD) ([1]; highest concentration assayed (16 µM), n = 9) | IC50 [1] | IC50 (Entamoeba) | Selectivity index (SI), Trypomastigotes [1] | IC50 (Giardia) | IC50 (Trypanosoma brucei) | inhibition at 16 µM ([1]; Trypanosoma cruzi, L929, read-out: % Trypomastigote/Amastigote Growth Inhibition (%T/A GI ± SD)) | cytotoxicity at 24 h, 10 µM [2] | cytotoxicity at 24 h, 100 µM [2]
O=C(Cn1ccnc1[N+](=O)[O-])NCc1ccccc1 [Benznidazole, reference compound] | 779.71 | 1.76 ± 0.34 µM | 76 ± 5.02% | 0% | 0.44 ± 0.61% | 0.18 ± 0.08% | 18000 nM | – | – | – | – | – | – | – | – | – | – | –
CCc1c(-c2ccc[nH]2)[nH]c(/C=N/C2CCCCC2)c1C [MM3] | 6.42 | 1.9 ± 0.45 µM | 97.1 ± 3.01% | 0.99 ± 0.92% | 24.9 ± 8.92% | 94.36 ± 0.5% | – | 0.79 | 0.035 µM | – | – | – | – | – | – | – | – | –
CCc1c(-c2ccc[nH]2)[nH]c(/C=N/c2ccc(C(C)(C)C)cc2)c1C [MM4] | – | – | – | 0% | 19.1 ± 3.94% | 85.2 ± 9.91% | – | 0.70 | – | – | – | – | – | – | – | – | – | –
CCCCCC1=C/C(=C/c2[nH]c(-c3ccc[nH]3)cc2OC)N=C1C [Natural prodigiosin, prodigiosin] | 50 | – | – | – | – | – | – | 0.81 | – | 100 ± 0% | 0.1 ± 0.04 µM | – | – | – | – | – | – | –
COC1=CC(c2cc3ccccc3[nH]2)=N/C1=C\c1[nH]c(C)cc1C [Obatoclax, reference compound] | – | 2.6 ± 0.4 µM | 88.4 ± 6% | 10.4 ± 4.8% | 63.3 ± 16.9% | 74.8 ± 4.06% | – | 1.80 | – | – | – | 500 nM | 2.24 | 900 nM | 40 nM | – | – | –
CCCCCC1=C/C(=C/c2[nH]c(-c3ccc[nH]3)cc2OC)N=C1C [Synthetic prodigiosin, prodigiosin] | 5.36 | – | – | – | – | – | – | 0.73 | – | – | 0.57 ± 0.19 µM | – | – | – | – | 100% | 90.5 ± 0.82% | 95.2 ± 0.94%

Source: PMC8151848, “Tambjamines and Prodiginines: Biocidal Activity against Trypanosoma cruzi” (Pharmaceutics, 2021)
